According to PubChem BioAssay (NCI):
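These data come from cells grown in 96-well plates and exposed to compound for 48 hours at five concentrations. GI50: concentration for 50% inhibition of growth. TGI denotes the concentration required for complete inhibition of growth.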

Columns and labels:
Assay in all cases: growth of human tumour cells (NCI), 48 h
DU-145 prostate = test system: DU-145 prostate
A498 renal = test system: A498 renal
SK-MEL-5 melanoma = test system: SK-MEL-5 melanoma
SK-MEL-2 melanoma = test system: SK-MEL-2 melanoma
MALME-3M melanoma = test system: MALME-3M melanoma
T-47D breast = test system: T-47D breast
HS 578T breast = test system: HS 578T breast
SF-295 CNS = test system: SF-295 CNS
A549 NSCLC = test system: A549 NSCLC
M14 melanoma = test system: M14 melanoma

Row | SMILES | GI50 (DU-145 prostate) | TGI (DU-145 prostate) | GI50 (A498 renal) | TGI (A498 renal) | GI50 (SK-MEL-5 melanoma) | TGI (SK-MEL-5 melanoma) | GI50 (SK-MEL-2 melanoma) | TGI (SK-MEL-2 melanoma) | GI50 (MALME-3M melanoma) | TGI (MALME-3M melanoma) | GI50 (T-47D breast) | TGI (T-47D breast) | GI50 (HS 578T breast) | TGI (HS 578T breast) | GI50 (SF-295 CNS) | TGI (SF-295 CNS) | GI50 (A549 NSCLC) | TGI (A549 NSCLC) | GI50 (M14 melanoma) | TGI (M14 melanoma)
1 | O=S(=O)(NC1=NCCN1C(=S)SN1CCn2c1nsc2=S)c1ccc(Oc2ccccc2)cc1 | 31.7 µM | > 100 µM | 34.2 µM | 97 µM | 32.3 µM | > 100 µM | 29.3 µM | 75.5 µM | 26.2 µM | > 100 µM | 81.3 µM | > 100 µM | 27.5 µM | > 100 µM | > 100 µM | > 100 µM | > 100 µM | > 100 µM | > 100 µM | > 100 µM
2 | C=C1C(=O)O[C@H](c2ccoc2)C[C@@H]1[C@@]1(C)CCCC2(C)C(=O)OCC21 (some centres undefined) | – | – | – | > 100 µM | – | > 100 µM | – | > 100 µM | – | > 100 µM | – | – | – | – | – | > 100 µM | – | > 100 µM | – | > 100 µM
3 | CC(=O)OCC1OC(n2cccnc2=O)C(OC(C)=O)C1OC(C)=O (centres undefined) | – | – | – | > 100 µM | – | > 100 µM | – | > 100 µM | – | > 100 µM | – | – | – | – | – | – | – | > 100 µM | – | > 100 µM
4 | CCOC(=O)C1=C(C)NC(=O)NC1c1ccc(OC)cc1OC (centres undefined) | – | – | – | > 100 µM | – | > 100 µM | – | > 100 µM | – | > 100 µM | – | – | – | – | – | > 100 µM | – | > 100 µM | – | > 100 µM
5 | CCCCC(=O)N(c1ccc(Nc2c3ccccc3nc3cc([N+](=O)[O-])ccc23)cc1)S(C)(=O)=O | 1.67 µM | 74 µM | 1.71 µM | 13.1 µM | 4.25 µM | 18.3 µM | 23.3 µM | 62.9 µM | 14.3 µM | 34.8 µM | 0.588 µM | 6.73 µM | 6.15 µM | 48.3 µM | 4.83 µM | > 100 µM | 1.99 µM | 62.2 µM | 11 µM | 33.6 µM
6 | O=C(Nc1nc(-c2ccc(Cl)cc2)cs1)c1cc(O)c(O)c(O)c1 | 247 µM | 1840 µM | 927 µM | 3480 µM | 194 µM | 881 µM | – | – | 266 µM | 2980 µM | 125 µM | 671 µM | 479 µM | > 5000 µM | 544 µM | 3280 µM | 276 µM | > 5000 µM | 244 µM | 4610 µM
7 | COC(=O)c1c[nH]c2cc(OC(C)C)c(OC(C)C)cc2c1=O | > 100 µM | > 100 µM | > 100 µM | > 100 µM | > 100 µM | > 100 µM | > 100 µM | > 100 µM | > 100 µM | > 100 µM | > 100 µM | > 100 µM | > 100 µM | > 100 µM | – | – | > 100 µM | > 100 µM | > 100 µM | > 100 µM
8 | CC1OC(n2cc(C(F)(F)F)c(=O)[nH]c2=O)C=CC1=O (centres undefined) | – | – | – | – | – | – | – | 34.6 µM | – | 34.2 µM | – | – | – | – | – | 81.5 µM | – | > 100 µM | – | 59.8 µM
9 | COC(=O)C1=CC2C(=O)OC1C1C(=O)NC(=O)C21 (centres undefined) | – | – | – | > 100 µM | – | > 100 µM | – | – | – | > 100 µM | – | – | – | – | – | > 100 µM | – | > 100 µM | – | > 100 µM
10 | CC(=O)[CH-]C(=O)c1ccccc1.CC(=O)[CH-]C(=O)c1ccccc1.Cl.[O-]c1ccnc2ccccc12.[O-]c1ccnc2ccccc12.[Ti+4] | – | – | > 100 µM | > 100 µM | > 100 µM | > 100 µM | > 100 µM | > 100 µM | > 100 µM | > 100 µM | – | – | – | – | > 100 µM | > 100 µM | – | – | > 100 µM | > 100 µM
11 | CC1(C)C(=O)OC(n2cc(F)c(=O)[nH]c2=O)C1=O (centres undefined) | – | – | – | > 100 µM | – | – | – | > 100 µM | – | > 100 µM | – | – | – | – | – | > 100 µM | – | > 100 µM | – | > 100 µM
12 | Cc1cccc(NC(=O)C(=O)C(C2OC(=O)c3ccccc32)[N+](=O)[O-])c1C (centres undefined) | – | – | – | 32 µM | – | 19.2 µM | – | 17.2 µM | – | 10.5 µM | – | – | – | – | – | 28.1 µM | – | 35.4 µM | – | 26.7 µM
13 | COc1cc(OCc2ccccc2)c2c(CCC(=O)O)cc(=O)oc2c1 (tested in a mixture with another compound) | – | > 100 µM | – | 80.6 µM | – | > 100 µM | – | > 100 µM | – | > 100 µM | – | – | – | > 100 µM | – | – | – | > 100 µM | – | > 100 µM
14 | O=C(/C=C/c1ccc(Cl)c(Cl)c1)c1ccccc1Cl | – | – | – | 31.4 µM | – | 26.7 µM | – | – | – | 30.5 µM | – | – | – | – | – | 26.9 µM | – | 31.6 µM | – | 12.7 µM
15 | CCc1nc(C)cn1C(=O)OCc1nc2nc(Cl)nc(N3CCOCC3)c2[nH]1 | 1.22 µM | 2.52 µM | 1.92 µM | 3.54 µM | 1.64 µM | 3.01 µM | 1.72 µM | 3.29 µM | 1.56 µM | 2.95 µM | – | – | 1.74 µM | 4.89 µM | 2.79 µM | 11.7 µM | 1.83 µM | 4.36 µM | 1.27 µM | 3.1 µM
16 | NCCCNc1nc2ccccc2c2c(=O)c3cc(F)ccc3sc12 | 1.73 µM | 3.21 µM | 1.48 µM | 3.36 µM | 1.73 µM | 3.13 µM | 1.75 µM | 3.43 µM | 1.71 µM | 3.22 µM | 1.63 µM | 3.58 µM | – | – | 1.76 µM | 3.21 µM | 1.59 µM | 3.48 µM | 1.69 µM | 3.11 µM
17 | c1ccc(C2=NOC3C4CCC(C4)C23)cc1 (centres undefined) | – | – | – | > 100 µM | – | > 100 µM | – | > 100 µM | – | > 100 µM | – | – | – | – | – | > 100 µM | – | > 100 µM | – | > 100 µM
18 | COc1ccc(Cn2cc(COc3cc(/C=C/C(=O)c4cc(OC)c(OC)c(OC)c4)ccc3OC)nn2)cc1 | 2.41 µM | 5.2 µM | 12.8 µM | > 100 µM | 3.66 µM | 20.5 µM | 8.33 µM | 42.1 µM | 25.7 µM | > 100 µM | 3.41 µM | > 100 µM | 7.88 µM | > 100 µM | – | – | 3.09 µM | 47.5 µM | 5.6 µM | > 100 µM
19 | CC(=O)OC1CCC2OOC1O2 (centres undefined) | – | – | – | > 100 µM | – | > 100 µM | – | > 100 µM | – | > 100 µM | – | – | – | – | – | > 100 µM | – | > 100 µM | – | > 100 µM
